Measurements: ChEMBL document CHEMBL4418300, “Uses of fahd1” (2016)

Target: T1, Oxaloacetate tautomerase FAHD1, mitochondrial (Homo sapiens, UniProt Q6P587)
T1 sequence (Q6P587 whole entry): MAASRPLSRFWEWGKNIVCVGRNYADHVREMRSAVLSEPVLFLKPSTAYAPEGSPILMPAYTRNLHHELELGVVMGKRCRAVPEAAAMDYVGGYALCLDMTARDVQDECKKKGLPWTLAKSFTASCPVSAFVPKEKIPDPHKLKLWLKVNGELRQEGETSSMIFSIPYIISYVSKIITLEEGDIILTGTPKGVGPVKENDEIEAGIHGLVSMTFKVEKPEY
Test: Inhibition of wild-type recombinant N-terminal His6 and S-tagged full-length human FAHD1 expressed in Escherichia coli using oxaloacetate as substrate by photometric analysis

Compound: O=C([O-])C(=O)[O-].[Na+].[Na+] [SODIUM OXALATE]
- IC50: 20 µM
